One series relates to HBsAg. The experiment in a line: HBsAg inhibition in HepG2.2.15 culture supernatant (ELISA). In kind it is cell-based, HBV. As to conditions: Hepatitis B virus, HepG2.2.15, 192 h, read-out: Activity in HBsAg inhibition, EC50. The method, then:
Test method: HepG2.2.15 cell line was seeded into 96-well plates at 1.5×10^4 cells/well. On the following day, the cells were treated with a three-fold serial dilution series of the compounds at eight concentration points, and 2 duplicate wells were determined in parallel. The final DMSO concentration in the culture solution was 0.5%. On the fifth day, the culture solution was replaced with fresh solution containing the compounds. On the eighth day, the culture supernatant was collected and the HBsAg in the culture supernatant was detected by ELISA. The percent inhibition was calculated with respect to the blank control.
Background: ELISA stands for enzyme-linked immunosorbent assay.

Series [1] can be described thus: Rat PK study (single IV and PO dose, plasma LC-MS/MS). The format is in vivo, S-D rats. Particulars: for F / AUC(0-t) / clearance / half-life / Vd / Cmax / Tmax: S-D rats; for F: PO 10 mg/kg vs IV 2 mg/kg; for AUC(0-t) / clearance / half-life / Vd / Cmax / Tmax: Sprague-Dawley (S-D), rat, plasma; for Vd: read-out: Vdss. The method, then:
Preparation of intravenous injection formulation: accurately weighing 2-3 mg of a sample, adding appropriate amount of N,N-dimethylacetamide (DMA), vortex oscillating to completely dissolve the solid matter; adding an appropriate volume of 30% Solutol HS-15 aqueous solution, vortex oscillating and then adding saline, so that DMA: 30% Solutol HS-15:saline=20:20:60 (v/v/v), vortex oscillating the liquid to mix the liquid evenly, and filtering to obtain a pharmaceutical preparation of a concentration of 0.4 mg·mL^−1.
Preparation of oral formulation: accurately weighing 10 mg of a sample, adding an appropriate volume of 0.5% CMC-Na aqueous solution, vortex oscillating and ultrasounding to mix the liquid evenly to obtain a pharmaceutical preparation of a concentration of 1 mg·mL^−1.
The formulations were freshly prepared on the day of administration, and samples were reserved and taken for the determination of the actual concentration.
S-D rats of Group A were given a single intravenous injection (IV) of 2 mg·kg^−1, respectively; S-D rats of Group B were given a single gavage administration (PO) of 10 mg·kg^−1, respectively. Approximately 0.15 mL of blood sample will was collected via jugular vein into EDTA-K2 tubes at the designated time points of pre-dose, and 5 min (IV only), 15 min, 30 min, 1 h, 2 h, 4 h, 8 h, 12 h and 24 h post dose. All of the whole blood samples were centrifuged for 10 min (at 5500 rpm) to obtain plasma samples, which were stored at a refrigerator below −30˜−10° C. Concentrations of compounds in the plasma samples were analyzed using a LC-MS/MS method. The pharmacokinetic parameters were calculated using non-compartment model in Pharsight Phoenix 7.0 software. See Tables 2a and 2b for the results.

Data on five compounds can be found in US20190381014A1, “ISOQUINOLINONE COMPOUNDS AND USE THEREOF IN PREPARATION OF ANTIVIRAL DRUGS” (Ginkgo Pharma Co., Ltd., priority 2016, published 2019).

For `COCC1(COc2cc3c(cc2OC)-c2cc(=O)c(C(=O)O)cn2[C@H](C(C)C)C3)COC1` [Compound I-7, (S)-6-isopropyl-10-methoxy-9-((3-(methoxymethyl)oxetan-3-yl)methoxy)-2-oxo-6,7-dihydro-2H-pyrido[2,1-α]isoquinoline-3-carboxylic acid], the EC50 (in general, the concentration at which the effect is half-maximal) with HBsAg is 3.82 nM. Further, the F in series [1] was 8.1%. Besides, in series [1] (IV 2 mg/kg), the AUC(0-t) – broadly, exposure summed from dosing to a finite time, without extrapolation to infinity – was found to be 1.18 µg·h/mL; the clearance was 1.73 L/h/kg; the half-life (as a rule, how long it takes for the measured level to halve) is 0.67 h; the Vd amounted to 1.39 L/kg. Besides, in series [1] (PO 10 mg/kg), the AUC(0-t) came to 0.47 µg·h/mL; the Cmax (as a rule, the peak of the concentration-time curve) is 0.103 µg/mL; the Tmax – broadly, the time from dosing to the highest level – was 1 h; the half-life was 1.4 h.

As to `COc1cc2c(cc1OCC1CC(OC)C1)C[C@@H](C(C)C)n1cc(C(=O)O)c(=O)cc1-2` (stereo partly drawn) [Compound I-8, (S)-6-isopropyl-10-methoxy-9-((3-methoxycyclobutyl)methoxy)-2-oxo-6,7-dihydro-2H-pyrido[2,1-α]isoquinoline-3-carboxylic acid], in the series on HBsAg, the EC50 was found to be 1.54 nM. For the same compound, the F in series [1] was found to be 27.1%. Besides, in series [1] (IV 2 mg/kg), the AUC(0-t) turned out to be 2.15 µg·h/mL, the clearance turned out to be 0.942 L/h/kg, the half-life is 0.89 h and the Vd was determined as 1.05 L/kg. For the same compound, in series [1] (PO 10 mg/kg), the AUC(0-t) stood at 3.03 µg·h/mL, the Cmax stood at 0.739 µg/mL, the Tmax came to 0.92 h and the half-life is 1.3 h. For the same compound, the “PK properties (overall judgement)” value in series [1] (combining PK data of IV and PO) is on record as “good PK properties”.

Take `COc1cc2c(cc1OCCCC(C)=O)C[C@@H](C(C)C)n1cc(C(=O)O)c(=O)cc1-2` [Compound I-9, (S)-6-isopropyl-10-methoxy-2-oxo-9-((4-oxopentyl)oxy)-6,7-dihydro-2H-pyrido[2,1-α]isoquinoline-3-carboxylic acid]: in the series with HBsAg, the EC50 worked out at 3.26 nM. The compound also gave a F in series [1] of 4.3%. In series [1] (IV 2 mg/kg), the AUC(0-t) was determined as 0.504 µg·h/mL, the clearance was 3.95 L/h/kg, the half-life was 0.29 h and the Vd is 0.942 L/kg. In series [1] (PO 10 mg/kg), the AUC(0-t) was determined as 0.105 µg·h/mL, the highest level (Cmax) was 0.0799 µg/mL, the Tmax stood at 0.33 h and the half-life was 1.8 h.

Turning to `COc1cc2c(cc1OC1CCCC1)C[C@@H](C(C)C)n1cc(C(=O)O)c(=O)cc1-2` [Compound I-10, (S)-9-(cyclopentyloxy)-6-isopropyl-10-methoxy-2-oxo-6,7-dihydro-2H-pyrido[2,1-α]isoquinoline-3-carboxylic acid], the EC50 in the series with HBsAg amounted to 3.01 nM. Moreover, the F in series [1] turned out to be 11.7%. In series [1] (IV 2 mg/kg), the AUC(0-t) amounted to 1.49 µg·h/mL, the clearance turned out to be 1.36 L/h/kg, the half-life is 0.88 h and the Vd stood at 1.41 L/kg. Besides, in series [1] (PO 10 mg/kg), the AUC(0-t) came to 0.869 µg·h/mL, the peak level (Cmax) was 0.265 µg/mL, the Tmax is 1 h and the half-life is 1.3 h.

As to `COc1cc2c(cc1C#CC1CC1)C[C@@H](C(C)C)n1cc(C(=O)O)c(=O)cc1-2` [Compound I-11, (S)-9-(cyclopropylethynyl)-6-isopropyl-10-methoxy-2-oxo-6,7-dihydro-2H-pyrido[2,1-α] isoquinoline-3-carboxylic acid], in the series with HBsAg, the EC50 turned out to be 2.57 nM. This compound returned a F in series [1] of 11.5%. Also, in series [1] (IV 2 mg/kg), the exposure AUC(0-t) is 0.946 µg·h/mL, the clearance came to 2.15 L/h/kg, the half-life was 0.58 h and the Vd was 1.37 L/kg. Further, in series [1] (PO 10 mg/kg), the AUC(0-t) came to 0.461 µg·h/mL, the concentration peaked (Cmax) at 0.119 µg/mL, the Tmax was determined as 1.8 h and the half-life is 3.2 h.
